One assay deals with T1, ArcT (Azoarcus olearius, UniProt A1K222).
T1 construct: gene azo0260; full gene; CherryTag-His6 fusion cut off with TEV protease; E. coli BL21 (DE3) Star
Nature of the assay: MALDI-MS ATP-pyrophosphate isotopic exchange. It counts as biochemical. The note with it: MgCl2, pyrophosphate, 20 mM Tris pH 7.4.

The target in a further assay is T2, ArcB (Azoarcus olearius, UniProt A1KCI0).
T2 construct: gene azo3920; full gene; CherryTag-His6 fusion cut off with TEV protease; E. coli BL21 (DE3) Star
T2 sequence (A1KCI0 entry or part of it): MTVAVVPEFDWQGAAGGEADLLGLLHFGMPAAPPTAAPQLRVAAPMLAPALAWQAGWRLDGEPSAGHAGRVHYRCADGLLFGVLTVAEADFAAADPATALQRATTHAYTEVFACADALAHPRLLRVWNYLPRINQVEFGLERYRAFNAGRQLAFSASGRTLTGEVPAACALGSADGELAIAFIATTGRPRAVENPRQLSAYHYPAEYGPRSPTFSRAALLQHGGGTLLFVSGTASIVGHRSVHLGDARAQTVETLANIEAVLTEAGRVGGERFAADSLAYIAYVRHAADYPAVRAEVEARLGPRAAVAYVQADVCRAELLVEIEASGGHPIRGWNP
Nature of the assay: GC-MS product detection after MSTFA derivatization. It counts as biochemical. The note with it: 1 mM substrate, 2 µg ArcB, 100 mM Tris pH 7.4, 37 °C, 10 or 60 min.

Here are results for three molecules from article PMC3949708, “Identification and Biosynthesis of a Novel Xanthomonadin-Dialkylresorcinol-Hybrid from Azoarcus sp. BH72” (PLoS ONE, 2014).

T1 sequence (A1K222 entry or part of it): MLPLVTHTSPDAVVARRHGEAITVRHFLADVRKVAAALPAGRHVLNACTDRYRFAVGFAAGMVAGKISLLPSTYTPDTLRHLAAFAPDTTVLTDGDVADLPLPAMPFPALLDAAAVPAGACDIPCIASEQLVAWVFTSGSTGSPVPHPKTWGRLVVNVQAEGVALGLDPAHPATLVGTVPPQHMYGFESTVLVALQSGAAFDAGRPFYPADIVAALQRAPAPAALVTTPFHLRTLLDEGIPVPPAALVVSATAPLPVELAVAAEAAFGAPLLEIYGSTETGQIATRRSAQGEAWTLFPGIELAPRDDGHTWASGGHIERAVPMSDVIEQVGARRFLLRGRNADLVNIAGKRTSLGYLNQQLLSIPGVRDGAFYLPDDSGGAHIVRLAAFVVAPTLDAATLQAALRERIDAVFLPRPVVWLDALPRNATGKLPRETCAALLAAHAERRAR

On to `O=C(O)c1cccc(O)c1` [3-hydroxybenzoic acid], for which the “MALDI-MS ATP-pyrophosphate isotopic exchange” value on ArcT (adenylation, [γ-18O4]-ATP) is on record as “MALDI-MS analysis showed ATP-label exchange in assays with 3-HBA”. Besides, the “GC-MS product detection after MSTFA derivatization” value at ArcB (formed from chorismic acid) was 3-HBA was only detectable in assays containing ArcB. Turning to `Nc1ncnc2c1ncn2[C@@H]1O[C@H](COP(=O)(O)OP(=O)(O)OP(=O)(O)O)[C@@H](O)[C@H]1O` [[γ-^18O4]-ATP], the “MALDI-MS ATP-pyrophosphate isotopic exchange” value on ArcT (3-HBA as co-substrate, labelled compound) is on record as “MALDI-MS analysis showed ATP-label exchange in assays with 3-HBA”. Turning to `C=C(O[C@@H]1C=C(C(=O)O)C=C[C@H]1O)C(=O)O` [chorismic acid], the “GC-MS product detection after MSTFA derivatization” value on ArcB is on record as 3-HBA was only detectable in assays containing ArcB.
